Reference: the supplement of paper PMC10627819

Legend:
[1] = tested on: S. aureus Newman; assay: fitness (endpoint OD595 vs no drug) (fraction); higher = more growth
Summary of the method: (§1)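 Volumes were 30 µl per well, or 55 µl for S. pneumoniae, in 384-well plates inoculated at OD595 0.01. Media were TSB, LB Lennox or CY at 37 °C, and OD595 was read every 30 min for 14 h with first-reading background subtraction. Fitness is the ratio of optical density at stationary-phase entry to the robust mean of no-drug controls. That ratio is capped at 1.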

[2] = tested on: S. pneumoniae D39V; assay: as above
Summary of the method: as §1

[3] = tested on: S. aureus DSM 20231; assay: Bliss interaction score (quartile over a dose matrix) (fitness difference); higher = more antagonism (negative = synergy)
Summary of the method: (§2)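 Quartiles of the Bliss score were taken over technical, biological and donor/recipient replicates. That score is observed fitness minus the product of the single-drug fitness values, which were inferred from combination data. Fitness itself is OD595 at entry into stationary phase divided by the plate's robust no-drug mean, with a cap at 1.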

[4] = tested on: S. aureus Newman; assay: as above
Summary of the method: as §2

[5] = tested on: B. subtilis 168; assay: as above
Summary of the method: as §2

[6] = tested on: S. pneumoniae D39V; assay: as above
Summary of the method: as §2

[7] = tested on: B. subtilis 168; assay: fitness (endpoint OD595 vs no drug) (fraction); higher = more growth
Summary of the method: as §1
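Wherever Bliss interaction score (quartile over a dose matrix) is given: first quartile when negative (synergy) and third quartile when positive (antagonism).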

Cc1ncc([N+](=O)[O-])n1CCO [Metronidazole] + C/C(=C\C(=O)OCCCCCCCCC(=O)O)C[C@@H]1OC[C@H](C[C@@H]2O[C@H]2[C@@H](C)[C@H](C)O)[C@@H](O)[C@H]1O [Pseudomonic acid]
fitness, [1], one replicate
Details	first compound 0.625 µg/mL	first compound 1.25 µg/mL	first compound 2.5 µg/mL
partner 0.0313 µg/mL	0.0517	0.0718	0.0759
partner 0.0625 µg/mL	0.0386	0.0347	0.0304
partner 0.125 µg/mL	0.0386	0.0514	0.0492

fitness, [2]
Details	first compound 1.073 µg/mL	first compound 1.25 µg/mL	first compound 2.145 µg/mL	first compound 2.5 µg/mL	first compound 4.29 µg/mL	first compound 5 µg/mL
partner 0.03 µg/mL	0.903	0.932	0.859	0.96	0.877	0.92
partner 0.06 µg/mL	–	0.816	–	0.829	0.81	0.816
partner 0.12 µg/mL	0.529	0.57	0.632	0.596	0.575	0.588

Details	Bliss interaction score
[3]	0.0111
[4]	0.0128
[5]	-0.0197
[6]	0.0684

C[C@@H]1O[C@@H]1P(=O)(O)O [Fosfomycin] + C/C(=C\C(=O)OCCCCCCCCC(=O)O)C[C@@H]1OC[C@H](C[C@@H]2O[C@H]2[C@@H](C)[C@H](C)O)[C@@H](O)[C@H]1O [Pseudomonic acid]
fitness, [1], one replicate
Details	first compound 0.781 µg/mL	first compound 1.562 µg/mL	first compound 3.124 µg/mL
partner 0.0313 µg/mL	0.0359	0.0031	0.0112
partner 0.0625 µg/mL	0.0247	0.0394	0.0147
partner 0.125 µg/mL	0.0275	0.0351	0.0342

fitness, [2]
Details	first compound 1.25 µg/mL	first compound 2.5 µg/mL	first compound 5 µg/mL
partner 0.03 µg/mL	0.928	0.937	0.868
partner 0.06 µg/mL	0.803	0.882	–
partner 0.12 µg/mL	0.531	0.454	0.201

Details	Bliss interaction score
[3]	0.0164
[4]	-0.0091
[5]	0.0483
[6]	-0.0714

CN(C)c1cc(NC(=O)CNC(C)(C)C)c(O)c2c1C[C@H]1C[C@H]3[C@H](N(C)C)C(O)=C(C(N)=O)C(=O)[C@@]3(O)C(O)=C1C2=O [Tigecycline] + CN[C@H](CC(C)C)C(=O)N[C@H]1C(=O)N[C@@H](CC(N)=O)C(=O)N[C@H]2C(=O)N[C@H]3C(=O)N[C@H](C(=O)N[C@H](C(=O)O)c4cc(O)cc(O)c4-c4cc3ccc4O)[C@H](O)c3ccc(c(Cl)c3)Oc3cc2cc(c3O[C@@H]2O[C@H](CO)[C@@H](O)[C@H](O)[C@H]2O[C@H]2C[C@](C)(N)[C@H](O)[C@H](C)O2)Oc2ccc(cc2Cl)[C@H]1O [Vancomycin]
Details	fitness
[1], first compound 0.039 µg/mL, partner 0.1875 µg/mL	0.974
[1], first compound 0.039 µg/mL, partner 0.375 µg/mL	0.998
[1], first compound 0.039 µg/mL, partner 0.75 µg/mL	≥ 1
[1], first compound 0.078 µg/mL, partner 0.1875 µg/mL	≥ 1
[1], first compound 0.078 µg/mL, partner 0.375 µg/mL	0.99
[1], first compound 0.078 µg/mL, partner 0.75 µg/mL	0.987
[1], first compound 0.156 µg/mL, partner 0.1875 µg/mL	0.992
[1], first compound 0.156 µg/mL, partner 0.375 µg/mL	≥ 1
[1], first compound 0.156 µg/mL, partner 0.75 µg/mL	0.987
[2], first compound 0.65 µg/mL, partner 0.03125 µg/mL	0.967
[2], first compound 0.65 µg/mL, partner 0.0625 µg/mL	0.939
[2], first compound 0.65 µg/mL, partner 0.125 µg/mL	0.871
[2], first compound 0.65 µg/mL, partner 0.5 µg/mL	0.0606
[2], first compound 1.3 µg/mL, partner 0.03125 µg/mL	0.989
[2], first compound 1.3 µg/mL, partner 0.0625 µg/mL	0.937
[2], first compound 1.3 µg/mL, partner 0.125 µg/mL	0.882
[2], first compound 1.3 µg/mL, partner 0.5 µg/mL	0.0528
[2], first compound 2.6 µg/mL, partner 0.03125 µg/mL	0.961
[2], first compound 2.6 µg/mL, partner 0.0625 µg/mL	0.962
[2], first compound 2.6 µg/mL, partner 0.125 µg/mL	0.918
[2], first compound 2.6 µg/mL, partner 0.25 µg/mL	0.543
[2], first compound 2.6 µg/mL, partner 0.5 µg/mL	0.0988

Details	Bliss interaction score
[3]	0.0923
[4]	0.0428
[5]	0.0787
[6]	0.0783

CO/N=C(\C(=O)N[C@@H]1C(=O)N2C(C(=O)O)=C(COC(N)=O)CS[C@H]12)c1ccco1 [Cefuroxime] + COc1cccc2c1C(=O)c1c(O)c3c(c(O)c1C2=O)C[C@@](O)(C(=O)CO)C[C@@H]3O[C@H]1C[C@H](N)[C@H](O)[C@H](C)O1 [Doxorubicin]
fitness, one replicate
Details	first compound 0.04875 µg/mL	first compound 0.0975 µg/mL	first compound 0.195 µg/mL	first compound 0.39 µg/mL	first compound 0.78 µg/mL	first compound 1.562 µg/mL	first compound 3.125 µg/mL	first compound 6.25 µg/mL
[1], partner 0.625 µg/mL	0.891	0.873	0.784	–	–	–	–	–
[1], partner 1.25 µg/mL	0.854	0.753	0.682	–	–	–	–	–
[1], partner 2.5 µg/mL	0.735	0.617	0.659	–	–	–	–	–
[7], partner 0.625 µg/mL	–	–	–	0.264	0.272	0.365	0.208	0.142
[7], partner 1.25 µg/mL	–	–	–	0.25	0.17	0.0862	0.0711	0.0435
[7], partner 2.5 µg/mL	–	–	–	0.018	0.0243	0.0327	0.0359	0.0405

fitness, [7]
Details	first compound 0.04875 µg/mL	first compound 0.0975 µg/mL	first compound 0.195 µg/mL
partner 0.625 µg/mL	0.667	0.575	0.343
partner 1.25 µg/mL	0.63	0.528	0.288
partner 2.5 µg/mL	0.371	0.293	0.025

Details	Bliss interaction score
[3]	0.0859
[4]	-0.0601
[5]	-0.158
[6]	-0.0401

O=C(O)c1cn(C2CC2)c2cc(N3CCNCC3)c(F)cc2c1=O [Ciprofloxacin] + C/C(=C\C(=O)OCCCCCCCCC(=O)O)C[C@@H]1OC[C@H](C[C@@H]2O[C@H]2[C@@H](C)[C@H](C)O)[C@@H](O)[C@H]1O [Pseudomonic acid]
fitness, [1], one replicate
Details	first compound 0.078 µg/mL	first compound 0.156 µg/mL	first compound 0.312 µg/mL
partner 0.0313 µg/mL	0.0919	0.0675	0.0586
partner 0.0625 µg/mL	0.052	0.0404	0.0324
partner 0.125 µg/mL	0.0642	0.0505	0.0607

fitness, [2]
Details	first compound 0.125 µg/mL	first compound 0.25 µg/mL	first compound 0.5 µg/mL
partner 0.03 µg/mL	0.92	0.877	–
partner 0.06 µg/mL	0.828	0.742	–
partner 0.12 µg/mL	0.444	0.551	0.393

Details	Bliss interaction score
[3]	0.0149
[4]	0.0616
[5]	0.0413
[6]	0.0559
